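Interpolation was linear, between the two tested concentrations surrounding the appropriate level; five concentrations were tested over 48 hours in 96-well plates. The concentration for 50% growth inhibition is given as GI50. TGI: concentration producing complete growth inhibition.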
Experiments:
Experiment in all cases: growth of human tumour cells (NCI), 48 h
HL-60(TB) leukemia = tested on: HL-60(TB) leukemia
IGROV1 ovarian = tested on: IGROV1 ovarian
KM12 colon = tested on: KM12 colon
MALME-3M melanoma = tested on: MALME-3M melanoma
OVCAR-3 ovarian = tested on: OVCAR-3 ovarian
OVCAR-5 ovarian = tested on: OVCAR-5 ovarian
SK-MEL-5 melanoma = tested on: SK-MEL-5 melanoma
SNB-19 CNS = tested on: SNB-19 CNS
UO-31 renal = tested on: UO-31 renal
SK-OV-3 ovarian = tested on: SK-OV-3 ovarian

## O=c1c2cc(F)ccc2sc2c(N3CCNCC3)nc3ccc(F)cc3c12
HL-60(TB) leukemia
  GI50: 2.05 µM
  TGI: 3.94 µM
IGROV1 ovarian
  GI50: 1.34 µM
  TGI: 2.74 µM
KM12 colon
  GI50: 1.79 µM
  TGI: 3.34 µM
MALME-3M melanoma
  GI50: 1.59 µM
  TGI: 3.06 µM
OVCAR-3 ovarian
  GI50: 1.73 µM
  TGI: 3.17 µM
OVCAR-5 ovarian
  GI50: 1.66 µM
  TGI: 3.07 µM
SK-MEL-5 melanoma
  GI50: 1.73 µM
  TGI: 3.11 µM
SNB-19 CNS
  GI50: 1.69 µM
  TGI: 3.2 µM
UO-31 renal
  GI50: 1.31 µM
  TGI: 2.6 µM

## O=S(=O)(NCCNc1nccc(-c2c(-c3ccc(F)c(O)c3)nc3sccn23)n1)c1ccc(F)cc1
HL-60(TB) leukemia
  GI50: 2.14 µM
  TGI: 6.09 µM
IGROV1 ovarian
  GI50: 2.43 µM
  TGI: 7.96 µM
KM12 colon
  GI50: 2.89 µM
  TGI: 14.6 µM
MALME-3M melanoma
  GI50: 0.232 µM
  TGI: 1.37 µM
OVCAR-3 ovarian
  GI50: 4.09 µM
  TGI: 59.5 µM
OVCAR-5 ovarian
  GI50: 4.37 µM
  TGI: 85.7 µM
SK-MEL-5 melanoma
  GI50: 1.52 µM
  TGI: 2.98 µM
SK-OV-3 ovarian
  GI50: 4.28 µM
  TGI: 75.7 µM
SNB-19 CNS
  GI50: 4.26 µM
  TGI: > 100 µM
UO-31 renal
  GI50: 4.02 µM
  TGI: 15.1 µM

## Nc1ccccc1C#C/C=C\C#Cc1ccc(OCCCNC(=O)c2cc3ccccc3[nH]2)cc1
IGROV1 ovarian
  GI50: 25.5 µM
  TGI: > 100 µM
KM12 colon
  GI50: 5.98 µM
  TGI: > 100 µM
MALME-3M melanoma
  GI50: 1.08 µM
  TGI: 18.3 µM
OVCAR-3 ovarian
  GI50: 11.7 µM
  TGI: 95.6 µM
OVCAR-5 ovarian
  GI50: 32.3 µM
  TGI: > 100 µM
SK-MEL-5 melanoma
  GI50: 2.09 µM
  TGI: 25.7 µM
SK-OV-3 ovarian
  GI50: 4.36 µM
  TGI: 33.1 µM
SNB-19 CNS
  GI50: 20.6 µM
  TGI: 56.8 µM
UO-31 renal
  GI50: 41.7 µM
  TGI: > 100 µM

## COc1ccc(-c2cs/c(=N\N=C\c3ccc(O)cc3O)n2/N=C/c2ccc(O)cc2O)cc1
HL-60(TB) leukemia
  GI50: 1.76 µM
  TGI: 6.09 µM
IGROV1 ovarian
  GI50: 2.67 µM
  TGI: 6.5 µM
KM12 colon
  GI50: 1.98 µM
  TGI: 4.6 µM
MALME-3M melanoma
  GI50: 2.2 µM
  TGI: 4.79 µM
OVCAR-3 ovarian
  GI50: 1.75 µM
  TGI: 3.67 µM
OVCAR-5 ovarian
  GI50: 2.37 µM
  TGI: 5.18 µM
SK-MEL-5 melanoma
  GI50: 1.69 µM
  TGI: 3.07 µM
SK-OV-3 ovarian
  GI50: 2.31 µM
  TGI: 5.02 µM
SNB-19 CNS
  GI50: 2.46 µM
  TGI: 6.84 µM
UO-31 renal
  GI50: 1.5 µM
  TGI: 3.2 µM

## CCCNC(=O)C1C(=O)C(=O)N(CCC)C1=O (centres undefined)
IGROV1 ovarian
  TGI: > 100 µM
KM12 colon
  TGI: > 100 µM
MALME-3M melanoma
  TGI: > 100 µM
OVCAR-3 ovarian
  TGI: > 100 µM
OVCAR-5 ovarian
  TGI: > 100 µM
SK-MEL-5 melanoma
  TGI: > 100 µM
SK-OV-3 ovarian
  TGI: > 100 µM
SNB-19 CNS
  TGI: > 100 µM
UO-31 renal
  TGI: > 100 µM

## [C](#Cc1ccccc1)[Hg][C]#Cc1ccccc1
HL-60(TB) leukemia
  GI50: 27.7 µM
  TGI: > 100 µM
IGROV1 ovarian
  GI50: 29.7 µM
  TGI: 97.5 µM
KM12 colon
  GI50: 94.1 µM
  TGI: > 100 µM
MALME-3M melanoma
  GI50: 27.9 µM
  TGI: 54.7 µM
OVCAR-3 ovarian
  GI50: 39.8 µM
  TGI: > 100 µM
OVCAR-5 ovarian
  GI50: 63.1 µM
  TGI: > 100 µM
SK-MEL-5 melanoma
  GI50: 53.3 µM
  TGI: > 100 µM
SK-OV-3 ovarian
  GI50: > 100 µM
  TGI: > 100 µM
SNB-19 CNS
  GI50: 47.3 µM
  TGI: > 100 µM
UO-31 renal
  GI50: 32.5 µM
  TGI: 74.6 µM

## CCOC(=O)C1=C(Nc2ccc(Cl)cc2Cl)OCC1=O
HL-60(TB) leukemia
  TGI: > 100 µM
IGROV1 ovarian
  TGI: > 100 µM
KM12 colon
  TGI: > 100 µM
MALME-3M melanoma
  TGI: > 100 µM
OVCAR-3 ovarian
  TGI: > 100 µM
OVCAR-5 ovarian
  TGI: > 100 µM
SK-OV-3 ovarian
  TGI: > 100 µM
SNB-19 CNS
  TGI: > 100 µM
UO-31 renal
  TGI: > 100 µM

Source: PubChem BioAssay (NCI)
